Results reported in publication PMC11358582, “Discovery of a potential bladder cancer inhibitor CHNQD-01281 by regulating EGFR and promoting infiltration of cytotoxic T cells” (Marine Life Science & Technology, 2024).
≈ marks a conversion by molar mass, not a printed value.

Assays:
[1] = Solubility in selected aqueous solutions; assay type: physicochemical
From the text: The problem of poor water solubility is one of the factors that seriously restricts the preclinical application of BFA. Therefore, from the perspective of pharmaceutics, it is of great application value to explore safe and effective methods to improve its solubility. Based on the previous screening of commonly used solvents, solubilizers and co-solvents for BFA and its derivatives, we explored the solubility of CHNQD-01281, which was compared and assessed in selected aqueous solutions (Table 1). Saline or PBS were commonly used solvents, but the solubility of BFA or CHNQD-01281 was less than 1 mg/mL when used alone. No significant improvement in solubility was observed after the addition of DMSO or PEG400. […] More importantly, the solution system of CHNQD-01281 with saline/DMSO/solutol HS-15 (85/5/10) can fully meet the needs of follow-up experiments in vivo, such as pharmacodynamics, pharmacokinetics and safety evaluation.

T24 cell line [2] = assay: Cell cycle analysis (Muse Cell Analyzer); assay type: cell-based, human
Description: (§1) T24 and J82 cell lines were seeded in 6-well plates (3 × 10^5 cells/well) and treated with different concentrations of CHNQD-01281 or DMSO. Cells were then harvested, washed with ice-cold PBS, and fixed in 70% cold ethanol overnight at − 20 °C. Fixed cells were then collected, washed, and stained with 200 μL of Muse™ cell cycle reagent for 30 min in the dark at room temperature. The cell cycle distribution was immediately analyzed by Muse Cell Analyzer (Millipore, Billerica, MA, USA).
(§2) The G1/S transition is a key checkpoint in the cell cycle that regulates DNA replication. As the cell cycle progresses, G1 phase arrest leads to apoptosis or repair mechanisms.

J82 cell line [3] = assay: Cell cycle analysis (Muse Cell Analyzer); assay type: cell-based, human
Description: as §1, §2

[4] = Tissue distribution in tumor and main organs; assay type: in vivo, C57BL/6 mice; conditions: tumor, heart, duodenum and spleen
Description: To further investigate the safety profile of CHNQD-01281 in vivo, the HE staining of the heart, liver, spleen, lung, kidney and duodenum of C57 mice were analyzed after the single dose of CHNQD-01281 (100 mg/kg, i.p.). […] The distribution of CHNQD-01281 in tumor and main organs of C57BL/6 mice was then analyzed.
Fig. S14. Safety profile and tissue distribution of CHNQD-01281 in vivo. A Representative H&E staining images (scale bar: 50 μm) of main organs from vehicle and CHNQD-01281 (100 mg/kg, ip.) treated C57BL/6 mice (n = 3). B Bodyweight evaluation of mouse after treatment with vehicle and CHNQD-01281. C Tissue distribution of CHNQD-01281 in C57BL/6 mice (n = 3).

T24 cell line [5] = assay: Cell apoptosis analysis (Annexin V); assay type: cell-based, human; conditions: T24, 0.32 µmol/L (control 3.45%)
Description: (§3) T24 and J82 cell lines were seeded in 6-well plates (3 × 10^5 cells/well) and treated with different concentrations of CHNQD-01281 or DMSO. Muse™ Annexin V and Dead Cell assay kit (Muse TM Cell Analyzer, Millipore (catalog no. MCH100105)) was used to determine the cell apoptosis by Muse cell analyzer (Millipore, Billerica, MA, USA).
(§4) Furthermore, treatment with CHNQD-01281 induced a dose-dependent increase in the total apoptosis of T24 and J82 cell lines. […] Meanwhile, the expression of apoptosis-related proteins cleaved PARP and cleaved caspase-3 were detected by Western blot. […] Therefore, CHNQD-01281 can induce DNA damage to arrest the cell cycle at the G0/G1 phase, affect the expression of DNA damage repair enzyme PARP, and finally induce apoptosis of bladder cancer cell lines.

J82 cell line [6] = assay: Cell apoptosis analysis (Annexin V); assay type: cell-based, human; conditions: J82, 0.32 µmol/L (control 4.15%)
Description: as §3, §4

cleaved PARP = assay: Western blot of apoptosis-related protein; assay type: cell-based, human; conditions: Fig. S11b
Description: (§5) T24 and J82 cell lines were lysed in protein lysis buffer, which included phosphatase inhibitors and a cocktail of protease inhibitors. A BCA kit (SparkJade, China) was used to determine the total protein concentration. After protein denaturation, SDS-PAGE electrophoresis was performed and the protein transferred from the gel to a PVDF membrane (Millipore, USA). Then primary antibodies against cleaved caspases-3, cleaved PARP, AKT, phosphorylated AKT, ERK1/2, phosphorylated ERK1/2, EGFR, mTOR, phosphorylated mTOR and Tubulin (CST, USA) were diluted at 1:1000 at 4 °C overnight. The membranes were then washed and incubated with secondary antibodies dissolved in 5% nonfat milk. A chemiluminescence imaging system was used to detect the signals (Tanon, China).
as §4

cleaved caspase-3 = assay: Western blot of apoptosis-related protein; assay type: cell-based, human; conditions: Fig. S11b
Description: as §5, §4

T24 cell line [7] = assay: Wound healing assay (migration); assay type: cell-based, human; conditions: T24, 0.16 µmol/L, 24 h
Description: (§6) Fig. 3 Effects of CHNQD-01281 on colony formation and migration of T24 and J82 cell lines. A T24 and J82 cell lines were cultured for 12 days with varying concentrations of CHNQD-01281 (0−0.16 μmol/L) and colonies were fixed and dyed with 0.1% crystal violet. B The relative colony numbers are shown. C Scratches of T24 and J82 cell colonies were generated with pipette tips (200 μL). After 24 h of incubation with 0−0.16 μmol/L CHNQD-01281, representative images were captured. D Histograms display the healed rate. Data are represented as the mean ± SD of three independent experiments. **P < 0.01, ***P < 0.001 and ****P < 0.0001 versus the 0 μmol/L group
(§7) Metastasis and invasiveness are important indications for progression of bladder cancer. […] At the concentration of 0.16 µmol/L, the healed rate of T24 and J82 was 21% and 29%, respectively.

J82 cell line [8] = assay: Wound healing assay (migration); assay type: cell-based, human; conditions: J82, 0.16 µmol/L, 24 h
Description: as §6, §7

`C[C@H]1CCC/C=C/[C@@H]2C[C@H](O)C[C@H]2[C@H](OC(=O)/C=C/c2cccnc2)/C=C/C(=O)O1` [CHNQD-01281, Brefeldin A 4-O-3-(pyridin-3-yl) acrylate] showed a solubility ([1]; Saline or PBS used alone) of under 1000 µg/mL, a solubility ([1]; aqueous with cosolvent or surfactant or cyclodextrin, No. 2: Saline/DMSO 95/5, pH 7.4, 25 °C) of under 1000 µg/mL and a solubility ([1]; aqueous with cosolvent or surfactant or cyclodextrin, No. 3: PBS/DMSO 95/5, pH 7.4, 25 °C) of under 1000 µg/mL. For the same molecule, the solubility ([1]; aqueous with cosolvent or surfactant or cyclodextrin, No. 4: Saline/PEG400 95/5, pH 7.4, 25 °C) was under 1000 µg/mL, the solubility ([1]; aqueous with cosolvent or surfactant or cyclodextrin, No. 5: Saline/PEG400 80/20, pH 7.4, 25 °C) was under 1000 µg/mL and the solubility ([1]; aqueous with cosolvent or surfactant or cyclodextrin, No. 6: Saline/DMSO/solutol HS-15 85/5/10, pH 7.4, 25 °C) was 12000 to 15000 µg/mL (≈ 29200 to 36500 µM). It also gave a solubility ([1]; aqueous with cosolvent or surfactant or cyclodextrin, No. 7: Saline/solutol HS-15 95/5, pH 7.4, 25 °C) of under 1000 µg/mL, a solubility ([1]; aqueous with cosolvent or surfactant or cyclodextrin, No. 8: Saline/solutol HS-15 90/10, pH 7.4, 25 °C) of under 1000 µg/mL and a solubility ([1]; saline or isotonic, No. 1: Saline (0.9% NaCl) 100, pH 7.4, 25 °C) of under 1000 µg/mL. The “improvement of solubility versus BFA” value ([1]; saline with 5% DMSO and 10% solutol HS-15) was “approximately tenfold”, the “proportion of cells in S phase” value (T24 cell line [2]; T24, 0.04 µmol/L (control 20.5%)) was 18.9% and the G0/G1 cells (T24 cell line [2]; T24, 0.04 µmol/L (control 61.4%)) was 65.0%. The “proportion of cells in S phase” value (T24 cell line [2]; T24, 0.08 µmol/L (control 20.5%)) was 13.5%, the G0/G1 cells (T24 cell line [2]; T24, 0.08 µmol/L (control 61.4%)) was 75.2% and the “proportion of cells in S phase” value (T24 cell line [2]; T24, 0.16 µmol/L (control 20.5%)) was 11.4%. For the same molecule, the G0/G1 cells (T24 cell line [2]; T24, 0.16 µmol/L (control 61.4%)) was 80.6%, the “proportion of cells in S phase” value (J82 cell line [3]; J82, 0.04 µmol/L (control 27.5%)) was 26.0% and the G0/G1 cells (J82 cell line [3]; J82, 0.04 µmol/L (control 53.1%)) was 60.3%. The “proportion of cells in S phase” value (J82 cell line [3]; J82, 0.08 µmol/L (control 27.5%)) was 22.1%, the G0/G1 cells (J82 cell line [3]; J82, 0.08 µmol/L (control 53.1%)) was 66.3% and the “proportion of cells in S phase” value (J82 cell line [3]; J82, 0.16 µmol/L (control 27.5%)) was 18.2%. The G0/G1 cells (J82 cell line [3]; J82, 0.16 µmol/L (control 53.1%)) was 73.6%, the “time of rapid concentration elimination” value [4] was at most 1 h and the total apoptotic cells (T24 cell line [5]) was 27.8%. The total apoptotic cells (J82 cell line [6]) was 27.9%, the “maximum expression level of cleaved PARP” value (cleaved PARP) was 0.95 fold of the control group and the “maximum expression level of cleaved caspase-3” value (cleaved caspase-3) was 1.23 fold of the control group. For the same molecule, the healed rate (T24 cell line [7]) was 21% and the healed rate (J82 cell line [8]) was 29%.
